The text below walks through data of patent publication US20250352658A1, “COMBINATION THERAPY USING ANTIBODY-DRUG CONJUGATES” (ADC THERAPEUTICS SA, priority 2021, published 2025).

Test [1] relates to WSU-DLCL2 xenograft. Put plainly: In vivo efficacy, WSU-DLCL2 xenograft model. Also on record: species or system mice. The protocol:
Female severe combined immunodeficient mice (Fox Chase SCID®, CB17/Icr-Prkdc^scid/IcrIcoCrl, Charles River) were nine weeks old with a body weight (BW) range of 17.3 to 24.1 g on Day 1 of the study.
On the day of implant, 1×10^7 WSU-DLCL2 cells (0.1 mL suspension) were subcutaneously implanted into the right flank of each test animal and tumors were monitored as their volumes approached the target range.
Ten days after tumor implantation, designated as Day 1 of the study, the animals were sorted into groups (n=10) with individual tumor volumes of 88 to 126 mm^3 and group mean tumor volumes of 109 to 111 mm^3.
All vehicle and ADC doses were administered i.v. via tail vein injection once on Day 1 (qd×1). The dosing volume was 0.2 mL per 20 grams of body weight (10 mL/kg) and was scaled to the body weight of each individual animal.
(§1) Tumors were measured using calipers twice per week, and each animal was euthanized when its tumor reached the endpoint volume of 1000 mm^3 or at the end of the study, whichever came first. The study ended on Day 62.
Tumors were measured in two dimensions using calipers, and volume was calculated using the formula
Tumor Volume (mm^3)=w^2×l/2, where w=width and l=length, in mm, of the tumor.
Tumor weight may be estimated with the assumption that 1 mg is equivalent to 1 mm^3 of tumor volume.

In test [2] the test system is Ramos xenograft. The experiment in a line: In vivo efficacy, Ramos xenograft model. Also on record: species or system mice. The protocol: A further in vivo study was conducted, similar to Example 2 but using a Ramos xenograft model.
Female severe combined immunodeficient mice (Fox Chase SCID®, CB17/Icr-Prkdc^scid/IcrIcoCrl, Charles River) were eight weeks old with a body weight (BW) range of 15.6 to 22.9 g on Day 1 of the study.
On the day of implant, 1×10^7 Ramos cells (0.1 mL suspension) were subcutaneously implanted into the right flank of each test animal and tumors were monitored as their volumes approached the target range. All vehicle and ADC doses were administered i.v. via tail vein injection once on Day 1 (qd×1). The dosing volume was 0.2 mL per 20 grams of body weight (10 mL/kg) and was scaled to the body weight of each individual animal.
Fourteen days after tumor implantation, designated as Day 1 of the study, the animals were sorted into groups (n=10) with individual tumor volumes of 108 to 144 mm^3 and group mean tumor volumes of 130 to 134 mm^3.
as §1

Setting [3] is: CD19xADC 0.25 mg/kg i.v. once on Day 1, n=10.
Where [4] appears, read: CD19xADC 0.5 mg/kg i.v. once on Day 1, n=10.
[5] abbreviates: CD19xADC 0.3 mg/kg i.v. once on Day 1, n=10.
Setting [6] is: CD19xADC 0.6 mg/kg i.v. once on Day 1, n=10.

As for “CD19xADC: anti-CD19 ADC; Loncastuximab tesirine is the CD19xADC used”, the “CR (complete response)” value in test [1] (setting [3]) is listed as 0; in test [1] (setting [4]), 5; in test [2] (setting [5]), 0; in test [2] (setting [6]), 7. Also, the “PR (partial response)” value in test [1] (setting [3]) was 3; in test [1] (setting [4]), 2; in test [2] (setting [5]) it was 0; in test [2] (setting [6]), 0. Further, the “TFS (tumour free survivor)” value in test [1] (setting [3]) was determined as 0; in test [1] (setting [4]), 3; in test [2] (setting [5]), 0; in test [2] (setting [6]), 7.
